Columns and labels:
MC38 colon cancer cells = test: MC38 colon tumor growth (tumor volume) in C57BL/6 mice; format: in vivo
Description: Tumor volumes were measured and plotted. (B) MC38 colon cancer cells were injected subcutaneously into the right flank of C57BL/6 mice. After seven days when tumors became palpable, one group was treated with 5-HTR7 antagonist SB-269970 (n=6 mice; 3 mg/kg/day) or left untreated (n=6 mice). Tumor volume was measured and plotted. (C) After seven days of the setting of tumor growth, one group was treated with a serotonin transporter blocker (SSRI) sertraline hydrochloride (n=6 mice; 15 mg/kg/week) or left untreated (n=6 mice). Tumor volume was measured and plotted. (D) C57BL/6 mice were given subcutaneously injected MC38 cells. After seven days of tumor growth, one group of mice was treated with different doses of 5-HTR2B antagonist SB-215505 (n=6). Tumor volume was measured and plotted. (E) C57BL/6 mice were given subcutaneously injected MC38 cells. After seven days of the tumor growth, one group of mice was treated with different doses of 5-HTR2B antagonist SB-215505 (n=6), one group treated with 5-HTR2B agonist BW-723C86 (n=6; 4 mg/kg/day). Tumor volume was measured and plotted. (F) MC38 cells were subcutaneously injected into C57BL/6 mice. After seven days when the tumor became palpable in mice, one group of mice was treated with FDA-approved 5-HTR2B antagonist cariprazine (Carispec; Sun pharma) via oral gavage (n=5 mice; dose 5 mg/kg body weight/day) or left untreated (n=5 mice). Tumor growth was measured and plotted. […] All the statistical analysis was performed using Student's ‘t’ test or two-way ANOVA using Sidak's multiple comparison test. *P<0.05; **P<0.01; ***P<0.00; ****P<0.0001 Error bar represents mean±standard error of means (SEM).

4T1-Luc2 cells = test: 4T1-Luc2 breast cancer model, tumor volume; format: in vivo, BALB/c mice; settings: SB-215505 vs untreated, from day 7 (FIG. 7G)
Description: FIG. 7 depicts that antagonizing the 5-HTR2B in mice inhibits breast and colon tumor growth: (A) MC38 colon cancer cells were injected subcutaneously into the right flank of C57BL/6 mice. […] Tumor volumes were measured and plotted. (B) MC38 colon cancer cells were injected subcutaneously into the right flank of C57BL/6 mice. After seven days when tumors became palpable, one group was treated with 5-HTR7 antagonist SB-269970 (n=6 mice; 3 mg/kg/day) or left untreated (n=6 mice). Tumor volume was measured and plotted. (C) After seven days of the setting of tumor growth, one group was treated with a serotonin transporter blocker (SSRI) sertraline hydrochloride (n=6 mice; 15 mg/kg/week) or left untreated (n=6 mice). Tumor volume was measured and plotted. (D) C57BL/6 mice were given subcutaneously injected MC38 cells. After seven days of tumor growth, one group of mice was treated with different doses of 5-HTR2B antagonist SB-215505 (n=6). Tumor volume was measured and plotted. […] Tumor volume was measured and plotted. […] Tumor growth was measured and plotted. […] Tumour volumes were measured and plotted. […] Tumour volumes were measured and plotted. […]
FIG. 16 depicts the effect of the 5-HTR2B antagonist on the FDA-approved chemotherapy drug treatment: (A) BALB/C mice were inoculated with 4T1-Luc2 cells in the mammary fat pad. […] Tumor volume was measured and plotted. […]

B16F10 cells = test: B16F10 melanoma model, tumor volume; format: in vivo, C57BL/6J mice; settings: SB-215505 vs untreated, from day 7 (FIG. 7H)
Description: FIG. 7 depicts that antagonizing the 5-HTR2B in mice inhibits breast and colon tumor growth: (A) MC38 colon cancer cells were injected subcutaneously into the right flank of C57BL/6 mice. […] Tumor volumes were measured and plotted. (B) MC38 colon cancer cells were injected subcutaneously into the right flank of C57BL/6 mice. After seven days when tumors became palpable, one group was treated with 5-HTR7 antagonist SB-269970 (n=6 mice; 3 mg/kg/day) or left untreated (n=6 mice). Tumor volume was measured and plotted. (C) After seven days of the setting of tumor growth, one group was treated with a serotonin transporter blocker (SSRI) sertraline hydrochloride (n=6 mice; 15 mg/kg/week) or left untreated (n=6 mice). Tumor volume was measured and plotted. (D) C57BL/6 mice were given subcutaneously injected MC38 cells. After seven days of tumor growth, one group of mice was treated with different doses of 5-HTR2B antagonist SB-215505 (n=6). Tumor volume was measured and plotted. (E) C57BL/6 mice were given subcutaneously injected MC38 cells. After seven days of the tumor growth, one group of mice was treated with different doses of 5-HTR2B antagonist SB-215505 (n=6), one group treated with 5-HTR2B agonist BW-723C86 (n=6; 4 mg/kg/day). Tumor volume was measured and plotted. […] Tumor growth was measured and plotted. […] Tumour volumes were measured and plotted. […] Tumour volumes were measured and plotted. […]

MC38 cells [1] = test: MC38 tumor growth in immuno-compromised NRG mice; format: in vivo; settings: 4 mg/kg/day from day 7; not as much as in wild-type mice (FIG. 8B)
Description: FIG. 8 depicts that 5-HTR2B antagonism promotes antigen-specific immune response to the tumor: (A) Experimental protocol for SB-215505 treatment in MC38 tumor-bearing NRG mice. In brief, (B) MC38 cells were injected subcutaneously into NRG mice. After seven days of the tumor growth setting in mice, one group of mice was treated with 5-HTR2B antagonist SB-215505 (n=5 mice) or left untreated (n=5 mice). Tumour volumes were measured and plotted. (C) Experimental protocol for adoptive transfer of SB-215505 pre-treated naïve or MC38 tumor primed immune cells in MC38 tumor-bearing NRG mice. In brief: (D) MC38 cells were injected subcutaneously into NRG mice. Those mice were adoptively transferred with naïve (n=4 mice) or MC38 tumor primed immune cells (n=4 mice) or SB-215505 pre-treated naïve (n=4 mice) or SB-215505 pre-treated MC38 tumor primed immune cells (n=4 mice) from the day of tumor inoculation. After the tumor begins to appear, tumor volumes were measured and plotted. […]
MC38 and MC38-cOVA cells were injected subcutaneously into the right flank of male C57BL/6 or NRG mice (0.5×10^6 cells/mouse in 150 μl PBS). […] Tumor volume was measured using a Vernier caliper on each alternate day or every third day as soon as the tumor appears. The volume of the tumor was measured using the formula V=L×W^2/2, where L=length of the tumor (mm) and W=width of the tumor (mm). […]

PD-L1 = PD-L1 expression on MC38 cells in vitro (flow cytometry, mRNA); format: cell-based, mouse; settings: BW-723C86 50 μM, serotonin 100 μM, RS-127445 50 μM, 72 hours (mRNA 48 hours) (FIG. 13A-E)
Description: FIG. 13 depicts 5-HTR2B signaling promotes PD-L1 expression on the MC38 cell line in vitro: (A-B) MC38 cells are treated with 5-HTR2B agonist (BW-723C86-50 μM), serotonin (100 μM), and 5-HTR2B antagonist (RS-127445-50 μM) for 72 hours, and the PD-L1 expression was checked by flow cytometry and the percentage of PD-L1^+ MC38 cells was plotted. (C-D) MFI of PD-L1 from the above experiment were plotted as histogram overlay (C) or as statistical data points (D). (E) Relative PD-L1 mRNA expression in MC38 cells following BW-723C86 and RS-127445 treatment for 48 hours. Here the values are shown as a fold change as compared to control MC38 cells. (F) Serum PD-L1 level was measured by ELISA of naïve C57BL/6J mice, control MC38 tumor-bearing mice, BW-723C86 (5 mg/kg/day) treated MC38 tumor-bearing mice and RS-127445 (5 mg/kg/day) treated MC38 tumor-bearing mice after 14 days of tumor inoculation. All the statistical analysis was performed using either Student's ‘t’ test or two-way ANOVA using Sidak's multiple comparison test. *P<0.05; **P<0.01; […]; ****P<0.0001 Error bar represents mean±standard error of means (SEM).
To understand it, investigations were done on whether 5-HTR2B signaling also affects the surface expression of molecules that alters inflammatory and cytotoxic immune cells. Among different molecules, PD-L1 is of particular interest as it is an immune checkpoint ligand that affects cytotoxic T-cell responses toward cancer. […] (FIG. 13F).

MC38 cells [2] = test: MTT cell viability assay; format: cell-based, mouse; settings: graded dose; reduced serum media; 48 hours of stimulation
Description: FIG. 6 depicts that 5-HTR2B signalling in colon cancer affects cell proliferation and viability: Colon cancer MC38 cells were treated with serotonin (100 μM), 5-HTR2B agonist (BW-723C86; 50 μM), or 5-HTR2B antagonist (SB-215505; 50 μM) for 48 hours, and cell cycle analysis was performed by propidium iodide staining using flow cytometry. MC38 cells were also treated with a graded dose of 5-HTR2B agonist (BW-723C86) or serotonin. MTT assay was performed to measure cell viability. (A) After treatment with 5-HTR2B agonist BW-723C86, serotonin, or 5-HTR2B antagonist SB-215505, the relative cell cycle analysis is shown. (B) Relative cell viability data of MC38 cells following treatment of graded doses of 5-HTR2B agonist BW-723C86 or serotonin are shown. The data shown are representative of one of the three independent experiments. (C) MC38 tumor sections from the control tumor and 5-HTR2B antagonist treated tumor were stained for CD31 and the number of CD31^+ micro-blood vessels/mm^2 of tissue sections was counted and plotted to observe angiogenesis. Error bar represents ±standard error of the mean (SEM).
MC38 cells were cultured at a density of 0.5×10^4 cells/well in 96 well plates (flat bottom) and were allowed to adhere for 24 hours. […] Then, MTT crystals were dissolved with DMSO, and the reading was taken at 590 nm in an ELISA reader (Thermofisher). […]

[3] = 4 mg/kg/day from day 7 after inoculation, vs untreated (FIG. 7A)

## Cc1nc2sccn2c(=O)c1CCN1CCC(=C(c2ccc(F)cc2)c2ccc(F)cc2)CC1 [Ritanserin]
MC38 colon cancer cells; [3]
  MC38 tumor growth: controls tumor growth to some extent
MC38 colon cancer cells; 4 mg/kg/day from day 7 after inoculation, vs untreated (FIG. 7A), listed as ritanserin
  MC38 tumor growth: did not prevent tumor growth

## Cc1cc2c(cc1Cl)N(C(=O)Nc1cccc3ncccc13)CC2 [SB-215505]
4T1-Luc2 cells
  tumor burden, mice breast cancer model: reduced tumor burden
B16F10 cells
  tumor burden, mice melanoma model: reduced tumor burden
MC38 cells [1]
  MC38 tumor growth in NRG mice: suppressed to some extent
MC38 colon cancer cells; [3]
  MC38 tumor growth: efficiently control the tumor growth
MC38 colon cancer cells; dose-response, doses from 0.5 mg/kg/day to 4 mg/kg/day (FIG. 7D)
  most efficient dose in reducing MC38 tumor growth: 4 mg/kg/day

## CN(C)C(=O)N[C@H]1CC[C@H](CCN2CCN(c3cccc(Cl)c3Cl)CC2)CC1 [cariprazine]
MC38 colon cancer cells; oral gavage, 5 mg/kg body weight/day (FIG. 7F)
  MC38 tumor growth: significant reduction in MC38 tumor growth

## NCCc1c[nH]c2ccc(O)cc12 [serotonin]
PD-L1
  expression of PD-L1 in the colon cancer cells: did not significantly alter the PD-L1 expression
MC38 cells [2]
  viability of MC38 cells: enhanced the viability of MC38 cells
